According to US20230167479A1, “RESEARCH INTO ANTIMICROBIAL RESISTANCE BY THE FIELD FLOW FRACTIONATION TECHNIQUE” (UNIVERSITÉ DE LIMOGES, priority 2020, published 2023):
In brackets after ≈: the same amount, converted by molar mass.

Assays:
Type in all cases: cell-based
[1] = tested on: E. coli strain ATCC 25922; test: SdFFF elution-profile sensitivity test, protocol of Example 2 / FIG. 4; details: for percentage of variation in the retention factor PΔR: sensitive strain, 4 mg/ml ampicillin vs control, significance threshold 10%
Description: (§1) The results of the antimicrobial resistance analysis are expected starting 18-26 hours after the sample was cultured on agar.
(§2) The field-flow fractionation device is set according to patent EP1679124. The device comprises an injection system where the sample is taken, the tubing bringing the sample from the injector to the separation channel via a first rotary joint, the separation channel contained in a centrifugation bowl, the rotation of which is ensured by an electric motor itself controlled manually or via a suitable computer device, thus allowing control of the intensity of the multigravitational field, the tubing bringing the separated species from the channel to the detector via the second rotary joint, and finally the detector.
(§3) Bacterial colonies were incubated in a Mueller-Hinton (MH) culture medium with an inoculum of 0.5 McFarland in the absence or in the presence of antibiotic, for 2 hours at 37° C. and under stirring. The liquid medium MH is the reference medium used for the reference method for determining MIC values, called the dilution method in a liquid medium.
(§4) After incubation for 2 h, the culture medium was centrifuged and then taken up in a volume of 0.5 ml of PBS.
(§5) According to the handlings shown in FIG. 5, the calculation of the percentage of variation in the retention factor or PΔR is carried out as follows: ?
(§6) Example 2: A new analysis protocol was established according to FIG. 4, consistent with the clinical implementation of conventional antibiograms, making it possible to reduce to 26 hours post-sampling/isolating the time for obtaining the test results.
(§7) Thus, such assays were carried out directly on bacterial suspensions, obtained from colonies of the E. coli strain ATCC 25922 and ATCC 35218 cultured for 16-24 hours on agar medium, and incubated for 2 hours in the presence or in the absence of antibiotic (Ampicillin, FIGS. 5A/B).

[2] = tested on: E. coli strain ATCC 35218; test: as above; details: for percentage of variation in the retention factor PΔR: resistant strain, 4 mg/ml ampicillin vs control, significance threshold 10%
Description: as §1, §2, §3, §4, §5, §6, §7

E. coli ATCC EC 25922 = test: minimum inhibitory concentration; details: Escherichia coli, ATCCEC25922; concentration said to correspond to the MIC
[3] = tested on: E. coli strain ATCC 25922; test: SdFFF elution-profile sensitivity test, protocol of Example 1 / FIG. 1; details: significance threshold 10%
Description: The results of the antimicrobial resistance analysis are expected starting 40 hours after the sample was cultured on agar.
as §2, §3, §4
Example 1: Results of resistance tests of the E. coli strain ATCC 25922 to various molecules, using SdFFF according to the present invention. […]

[4] = 4 mg/ml ampicillin, PΔR compared with 10% threshold

Structure (SMILES)	sensitivity/resistance of the strain to the antimicrobial [1, 4]	percentage of variation in the retention factor PΔR [1] [%]	percentage of variation in the retention factor PΔR ([1]; listed as Ampicillin)	sensitivity/resistance of the strain to the antimicrobial [2, 4]	PΔR ([2]; resistant strain incubated with 8 mg/ml ampicillin)	percentage of variation in the retention factor PΔR [2] [%]	percentage of variation in the retention factor PΔR ([2]; listed as Ampicillin)	MIC (E. coli ATCC EC 25922) [µg/mL]	PΔR ([3]; 0.03 µg/ml chlortetracycline vs control) [%]	percentage of variation in the retention factor PΔR ([3]; 3 µg/ml of kanamycin vs control) [%]
CC1(C)S[C@@H]2[C@H](NC(=O)[C@H](N)c3ccccc3)C(=O)N2[C@H]1C(=O)O [ampicillin, Ampicillin]	sensitive	12.70	≈ 13%	resistant	≈ 7%	4.50	≈ 5%			
CN(C)[C@@H]1C(O)=C(C(N)=O)C(=O)[C@@]2(O)C(O)=C3C(=O)c4c(O)ccc(Cl)c4[C@@](C)(O)[C@H]3C[C@@H]12 [chlortetracycline, Chlortetracycline]								0.03 (≈ 0.0626 µM)	22	
NC[C@H]1O[C@H](O[C@H]2[C@H](O)[C@@H](O[C@H]3O[C@H](CO)[C@@H](O)[C@H](N)[C@H]3O)[C@H](N)C[C@@H]2N)[C@H](O)[C@@H](O)[C@@H]1O [kanamycin]								3 (≈ 6.19 µM)		11.2
